Results published in BindingDB's records for PubMed 38266553 (China Pharmaceutical University).

Key:
[1] = target: Prostaglandin G/H synthase 1 (Homo sapiens) (UniProt P23219); test: Inhibition of COX-1 (unknown origin) using arachidonic acid as substrate preincubated for 10 mins followed by substrate addition and measured after 5 mins by fluorescence based analysis
[2] = target: Prostaglandin G/H synthase 2 (Homo sapiens) (UniProt P35354); test: Inhibition of COX-2 (unknown origin) using arachidonic acid as substrate preincubated for 10 mins followed by substrate addition and measured after 5 mins by fluorescence based analysis
Prostaglandin G/H synthase 2 (Homo sapiens), sequence (P35354 whole entry, looked up): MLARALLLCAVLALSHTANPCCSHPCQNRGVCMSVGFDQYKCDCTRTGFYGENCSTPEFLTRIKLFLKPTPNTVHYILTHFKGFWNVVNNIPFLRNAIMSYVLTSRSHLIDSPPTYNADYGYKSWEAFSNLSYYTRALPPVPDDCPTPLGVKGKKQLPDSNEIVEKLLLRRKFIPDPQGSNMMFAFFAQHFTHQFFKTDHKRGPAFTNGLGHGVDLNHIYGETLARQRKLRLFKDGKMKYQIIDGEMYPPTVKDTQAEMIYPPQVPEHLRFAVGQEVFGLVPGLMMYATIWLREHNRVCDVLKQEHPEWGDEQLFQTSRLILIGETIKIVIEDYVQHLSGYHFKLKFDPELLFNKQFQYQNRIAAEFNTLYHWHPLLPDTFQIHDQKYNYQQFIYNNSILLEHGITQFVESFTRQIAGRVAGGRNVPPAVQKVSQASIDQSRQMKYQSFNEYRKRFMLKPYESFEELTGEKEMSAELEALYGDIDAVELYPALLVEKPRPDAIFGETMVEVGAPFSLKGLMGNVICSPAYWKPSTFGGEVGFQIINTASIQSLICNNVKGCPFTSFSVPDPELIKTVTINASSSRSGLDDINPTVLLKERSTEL

Row | IC50 [1] | IC50 [2] | Compound
1 | 5730 nM | 75 nM | Cc1[nH]n(-c2ccccc2)c(=O)c1Cc1ccc(C(=O)NO)cc1
2 | 321 nM | 134 nM | CCc1nn(-c2ccccc2)c(O)c1Cc1ccc(C(=O)NO)cc1
3 | 1290 nM | 144 nM | CC(C)(C)c1nn(-c2ccccc2)c(O)c1Cc1ccc(C(=O)NO)cc1
4 | 1360 nM | 58 nM | Cc1nn(-c2cccc(Cl)c2)c(O)c1Cc1ccc(C(=O)NO)cc1
